Measurements reported in publication PMC13108699, “Mass balance and metabolite profiling of ^14C-Zalunfiban in humans following single-dose subcutaneous administration” (Xenobiotica; the fate of foreign compounds in biological …, 2025).

Assay: Metabolite profiling of pooled whole blood, urine and faeces by LC radiochromatograms with AMS
Format: in vivo, human
Method: For metabolite profiling in whole blood, urine, and faeces, LC-MS/MS followed by AMS was used. The HPLC system included a 1290 Infinity Sampler, Binary Pump, and thermostat (Agilent, UK). The chromatographic method used an aqueous formic acid (MPA)/ammonium acetate:acetonitrile:methanol (MPB) gradient and a Scherzo SS-C18 HPLC column at a temperature of 40 °C with injection volumes of 50–200 microliters. The gradient was set at 90% MAP and 10% MPB. The mass spectrometer was a Q-Exactive system (Thermo Fisher Scientific, UK) and the AMS a single stage NEC SSAMS-250.
Single whole blood, faeces, and urine pools were created across subjects and radioactive regions representing 10% or more of the circulating radioactivity were analysed (e.g. 10% or more of the circulating radioactivity in whole blood or accounting for 10% or more of the administered radioactivity/dose in urine and faeces), To create the pool, an individual subject AUC pool was prepared, and a constant proportion of each subject pool was taken to create one cross-subject pool. The whole blood sample pool included samples from hours 0–144, the urine sample pool included samples from hours 0–48, and the faeces pool from hours 0–192.
Whole blood, faeces, and urine radiochromatograms were generated for each sample by collecting HPLC fractions at intervals of 2 (30 s) or 4 (15 s) per minute over the run time of 110 min.
Radiochromatograms were generated from AMS data using the LAURA V6 software (LabLogic, Sheffield, UK). Regions of interest were quantified and provisionally identified where possible by assignment of observed peaks in each radiochromatogram to either parent zalunfiban or M1 by retention time matching, with corresponding ^12C-reference standards obtained via LC-UV.
Assignment of parent and metabolites was made by matching retention times with synthesised standards at wavelengths of 210, 230, 254, 270, and 300 nm, using liquid chromatography ultraviolet chromatography (LC-UV).
For extraction of ^14C-zalunfiban from whole blood, weighed aliquots in microcentrifuge tubes were processed with vortex mixing and centrifugation. The supernatant was then harvested and the process repeated with the bullet material in the original tube using acetonitrile and then methanol. The combined aliquots then underwent AMS analysis to determine the extraction recovery. Once optimised, the final combined supernatant was dried under N2 gas at 40 °C and reconstituted with 1 mL methanol:water (20:80, v/v), with vortex mixing and sonication. This was followed by analysis by LC. The radioactivity extraction recovery for whole blood (AUC0–144h) was 54.5%,
For extraction of ^14C-zalunfiban from homogenised faeces, weighed aliquots in microcentrifuge tubes were processed with vortex mixing and centrifugation, and then diluted with acetonitrile, followed by additional mixing, centrifugation, and repeat extraction with methanol:water until optimised. Once optimised, the final combined supernatant was dried under N2 gas at 40 °C and reconstituted with methanol, followed by water, followed by vortex mixing, followed by analysis by LC. The radioactivity extraction recovery for faeces (0–192 h) was 100%.
Urine was not subjected to extraction. An aliquot was dispensed into an LC vial prior to analysis.

NCC(=O)Nc1cncc(-c2nn3c(=O)cc(N4CCNCC4)nc3s2)c1 [Zalunfiban, 2-amino-N-{5-[5-oxo-7-(piperazin-1-yl)-5H-[1,3,4]thia-diazolo[3,2-a]pyrimidin-2-yl]pyridin-3-yl}acetamide]
Percentage of dose excreted in urine (0–48 h): 1.31%
Percentage of total radioactivity in urine (0–48 h cross-participant pooled sample): 1.59%
Percentage of dose excreted in faeces (0–192 h): 0.0239%
Percentage of total radioactivity in faeces (0–192 h pooled sample): 0.173%
Percentage of total circulating radioactivity in whole blood (AUC0–144 cross-pooled whole blood extract): 46.9%
